Measurements: patent US8530512B2, “Broad spectrum gram-positive antimicrobials and anthelmintics with efficacy against drug-resistant strains and Mycobacterium species” (priority 2004, dated 2013)
Converted amounts (≈) assume the structure as drawn. Read-outs that look alike come from different tables or passages of the source.

Key:
[1] = system: Mycobacterium avium; test: MIC assay; type: cell-based; conditions: for MIC: Mycobacterium avium, read-out: MIC M. avium
[2] = system: Staphylococcus aureus ATCC 29213; test: microbe, parasite or virus in culture; type: cell-based; conditions: for MIC: Staphylococcus aureus, ATCC29213
[3] = system: Mycobacterium intracellulare; test: MIC assay; type: cell-based; conditions: for MIC: Mycobacterium intracellulare, read-out: MIC M. intracellulare
[4] = system: M. kansasii; test: MIC assay; type: cell-based; conditions: for MIC: Mycobacterium kansasii, read-out: MIC M. kansasii
[5] = system: C. elegans; test: motility assay; type: in vivo; set-up: key to Movement score, 1/1600 / Movement score, 1/800 / Movement score, 1/400 / Movement score, 1/200 / Movement score, 1/100: normal (−); slow (+); very slow (++); not motile/paralyzed (+++); conditions: for Movement score, 1/100: dilution 1/100 of stock (10.24 μg/μL; SK-03-92 1.024 μg/μL); for Movement score, 1/100 / Movement score, 1/200 / Movement score, 1/400 / Movement score, 1/800 / Movement score, 1/1600: Ive 1 ng/μL in all wells; for Movement score, 1/200: dilution 1/200 of stock (10.24 μg/μL; SK-03-92 1.024 μg/μL); for Movement score, 1/400: dilution 1/400 of stock (10.24 μg/μL; SK-03-92 1.024 μg/μL); for Movement score, 1/800: dilution 1/800 of stock (10.24 μg/μL; SK-03-92 1.024 μg/μL); for Movement score, 1/1600: dilution 1/1600 of stock (10.24 μg/μL; SK-03-92 1.024 μg/μL), overnight 20° C.
[6] = system: Bacillus cereus; test: microbe, parasite or virus in culture; type: cell-based; conditions: Bacillus cereus; per-compound listing, Example 6; read-out: MIC B. cereus
[7] = system: Mycobacterium fortuitum; test: MIC assay; type: cell-based; conditions: for MIC: Mycolicibacterium fortuitum, read-out: MIC M. fortuitum
[8] = system: M. smegmatis; test: MIC assay; type: cell-based; conditions: for MIC: Mycolicibacterium smegmatis, read-out: MIC M. smegmatis
[9] = system: Staphylococcus aureus MRSA MC-1; test: microbe, parasite or virus in culture; type: cell-based; conditions: for MIC: Staphylococcus aureus, MRSA
[10] = system: Mycobacterium chelonae; test: MIC assay; type: cell-based; conditions: for MIC: read-out: MIC M. chelonae
[11] = system: C. elegans L1 larvae; test: developmental assay; type: in vivo; set-up: key to Developmental score, 1/1600 / Developmental score, 1/800 / Developmental score, 1/400 / Developmental score, 1/200 / Developmental score, 1/100: dead (+++); distressed (++); slightly delayed (+); the same as M9-only untreated wells (−); conditions: after four days, Ive 1 ng/μL in each well; for Developmental score, 1/100: dilution 1/100; for Developmental score, 1/200: dilution 1/200; for Developmental score, 1/400: dilution 1/400; for Developmental score, 1/800: dilution 1/800; for Developmental score, 1/1600: dilution 1/1600
[12] = Table 6, read-out: MIC S. aureus ATCC 29213
[13] = per-compound listing, Example 6, read-out: MIC S. aureus
[14] = per-compound listing, Example 6

Compound | MIC ([1]; Table 6) [µg/mL] | MIC [2, 12] [µg/mL] | MIC ([3]; Table 6) [µg/mL] | MIC ([4]; Table 6) [µg/mL] | Movement score, 1/100 [5] | Movement score, 1/200 [5] | Movement score, 1/400 [5] | Movement score, 1/800 [5] | Movement score, 1/1600 [5] | MIC ([7]; Table 6) [µg/mL] | MIC M. smegmatis ([8]; Table 6) [µg/mL] | MIC ([9]; read-out: MIC S. aureus MC-1) [µg/mL] | MIC ([10]; Table 6) [µg/mL] | Developmental score, 1/100 [11] | Developmental score, 1/200 [11] | Developmental score, 1/400 [11] | Developmental score, 1/800 [11] | Developmental score, 1/1600 [11] | MIC ([8]; Table 6) [µg/mL] | MIC M. avium ([1]; Table 6) [µg/mL] | also measured
COc1cc(O)cc(/C=C/Oc2cccc3ccccc23)c1 [SK-04-22] | 64 (≈ 219 µM) | 16 (≈ 54.7 µM) | 128 (≈ 438 µM) | 64 (≈ 219 µM) | ++ | + | + | − | − | 128 (≈ 438 µM) | 128 (≈ 438 µM) | 16 (≈ 54.7 µM) | 256 (≈ 876 µM) |  |  |  |  |  |  |  | MIC [2, 13]: 32 µg/mL (≈ 109 µM); MIC [6]: 8 µg/mL (≈ 27.4 µM); MIC [8, 14]: 128 µg/mL (≈ 438 µM); MIC ([9]; read-out: MIC MRSA): 16 µg/mL (≈ 54.7 µM)
COc1cc(O)cc(/C=C/c2cccc(O)c2)c1 [SK-04-03] | 8 (≈ 33 µM) | 32 (≈ 132 µM) | 16 (≈ 66 µM) | 64 (≈ 264 µM) | ++ | ++ | + | + | − | 64 (≈ 264 µM) |  | 16 (≈ 66 µM) | 64 (≈ 264 µM) | +++ | + | − | − | − | 64 (≈ 264 µM) |  | 
CCOC(=O)/C=C\Sc1ccccc1C(=O)OC [SK-04-56] | 64 (≈ 240 µM) | > 512 | 256 (≈ 961 µM) | 64 (≈ 240 µM) |  |  |  |  |  | 64 (≈ 240 µM) |  | > 512 | 64 (≈ 240 µM) |  |  |  |  |  | 64 (≈ 240 µM) |  | 
CCOC(=O)/C=C\Sc1ccc(C(C)(C)C)cc1 [SK-04-57] | 64 (≈ 242 µM) | > 512 | 128 (≈ 484 µM) | 16 (≈ 60.5 µM) | + | − | − | − | − | 4 (≈ 15.1 µM) |  | > 512 | 8 (≈ 30.3 µM) |  |  |  |  |  | 16 (≈ 60.5 µM) |  | 
CCOC(=O)/C=C\Sc1ncccn1 [SK-04-58F] |  |  |  |  |  |  |  |  |  |  | 64 (≈ 304 µM) |  |  |  |  |  |  |  |  | 64 (≈ 304 µM) | MIC S. aureus ATCC 29213 ([2]; Table 6): >512 µg/mL; MIC M. intracellulare ([3]; Table 6): 128 µg/mL (≈ 609 µM); MIC M. kansasii ([4]; Table 6): 64 µg/mL (≈ 304 µM); MIC M. fortuitum ([7]; Table 6): 64 µg/mL (≈ 304 µM); MIC S. aureus MC-1 ([9]; Table 6): >512 µg/mL; MIC M. chelonae ([10]; Table 6): 32 µg/mL (≈ 152 µM)
COc1cc(O)cc(/C=C/Oc2ccc3ccccc3c2)c1 [SK-04-23] | 64 (≈ 219 µM) | 8 (≈ 27.4 µM) | 64 (≈ 219 µM) | 64 (≈ 219 µM) | ++ | ++ | ++ | ++ | + | 128 (≈ 438 µM) | 128 (≈ 438 µM) | 8 (≈ 27.4 µM) | 128 (≈ 438 µM) | +++ | +++ | + | − | − |  |  | MIC [2, 13]: 16 µg/mL (≈ 54.7 µM); effect on worms at the lowest concentrations tested ([5]; lowest concentrations tested, at least triplicate): reduced motility, paralysis, or death; MIC [6]: 8 µg/mL (≈ 27.4 µM); MIC [8, 14]: 128 µg/mL (≈ 438 µM); MIC ([9]; read-out: MIC MRSA): 8 µg/mL (≈ 27.4 µM)
N#Cc1cccc(/C=C/Sc2ncccn2)c1 [SK-04-73] |  |  |  |  |  |  |  |  |  |  | 64 (≈ 267 µM) |  |  |  |  |  |  |  |  | 512 (≈ 2140 µM) | MIC S. aureus ATCC 29213 ([2]; Table 6): 512 µg/mL (≈ 2140 µM); MIC M. intracellulare ([3]; Table 6): 512 µg/mL (≈ 2140 µM); MIC M. kansasii ([4]; Table 6): 128 µg/mL (≈ 535 µM); MIC M. fortuitum ([7]; Table 6): 256 µg/mL (≈ 1070 µM); MIC S. aureus MC-1 ([9]; Table 6): >512 µg/mL; MIC M. chelonae ([10]; Table 6): 256 µg/mL (≈ 1070 µM)
COc1cc(O)cc(/C=C/c2ccc(O)cc2)c1 [SK-04-02] |  | 32 (≈ 132 µM) |  |  |  |  |  |  |  |  |  |  |  |  |  |  |  |  |  |  | MIC [1]: 16 µg/mL (≈ 66 µM); MIC [3]: 16 µg/mL (≈ 66 µM); MIC [4]: 32 µg/mL (≈ 132 µM); MIC [7]: 64 µg/mL (≈ 264 µM); MIC [8]: 64 µg/mL (≈ 264 µM); MIC ([9]; Table 6, read-out: MIC S. aureus MC-1): 32 µg/mL (≈ 132 µM); MIC [10]: 32 µg/mL (≈ 132 µM)
CCOC(=O)/C=C\Sc1nc2ccccc2s1 [SK-04-59F] |  |  |  |  |  |  |  |  |  |  | 16 to 32 |  |  |  |  |  |  |  |  | 64 (≈ 241 µM) | MIC S. aureus ATCC 29213 ([2]; Table 6): >512 µg/mL; MIC M. intracellulare ([3]; Table 6): 16 µg/mL (≈ 60.3 µM); MIC M. kansasii ([4]; Table 6): 8 µg/mL (≈ 30.1 µM); MIC M. fortuitum ([7]; Table 6): 16 µg/mL (≈ 60.3 µM); MIC S. aureus MC-1 ([9]; Table 6): >512 µg/mL; MIC M. chelonae ([10]; Table 6): 8 µg/mL (≈ 30.1 µM)
COc1cc(O)cc(C#Cc2ccccc2)c1 [SK-04-08] | 16 (≈ 71.3 µM) | 32 (≈ 143 µM) | 16 (≈ 71.3 µM) | 32 (≈ 143 µM) | +++ | +++ | ++ | + | + | 32 (≈ 143 µM) |  | 1 (≈ 4.46 µM) |  | +++ | +++ | − | − | − | 64 (≈ 285 µM) |  | 
